Experimental findings from patent US8105577B1, “Prebiotic composition for increasing probiotic growth rate and activity” (Master Supplements, Inc., priority 2010, dated 2012) are described below.

Holding throughout (format): cell-based
Experiment [1] deals with Lactobacillus salivarius Ls-33 (LS-30). Nature of the experiment: Growth (turbidity) and lactic acid producing activity in MRS broth, L. salivarius Ls-33. Conditions: for pH: 0.1% in MRS (polysorbate 80 1.0 g/liter). Here is the method:
(§1) Each flask was tempered to 37° C. and aseptically inoculated with 0.14 gm of the individual probiotic strains (in Examples 5 to 10 below) to be tested. At specified time intervals, a 30 ml sample from each flask was aseptically transferred into a HACH […] Turbidimeter sample cell. The turbidity of each sample was read and the results were reported in NTU's. The same 30 ml sample used for the turbidity reading was transferred into a 250 ml glass beaker, and the pH was recorded. The sample was titrated using 0.1N NaOH to an endpoint of pH 6.8, and the quantity of NaOH used was recorded. The % Lactic Acid was calculated using the following formula: % Lactic Acid=((mls of 0.1N NaOH)×(0.1N)×(90 gm/mole)×(1 L/1000 ml))×100 mls of sample % Lactic Acid=(mls of 0.1N NaOH)×(0.9) (Results reported at 12 hours and 23 hours like: 12/23 in Table V below)

Experiment [2] has as its system Lactobacillus paracasei Lpc-37 (F-19). The experiment is described as follows: Growth (turbidity) and lactic acid producing activity in MRS broth, L. paracasei Lpc-37. Here is the method: as §1, with “III” for “V”
Experiment [3] relates to Lactobacillus rhamnosus Lr-32 (LR-44). The experiment is described as follows: Growth (turbidity) and lactic acid producing activity in MRS broth, L. rhamnosus Lr-32. Conditions: for pH: 0.1% in MRS (polysorbate 80 1.0 g/liter). As to the method:
as §1, with “IV” for “V”

Experiment [4] concerns Lactobacillus acidophilus NCFM (LA-1). The experiment is described as follows: Growth (turbidity) and lactic acid producing activity in MRS broth, L. acidophilus NCFM. Conditions: for pH: 0.1% in MRS (polysorbate 80 1.0 g/liter). As to the method: as §1, with “At” for “Each flask was tempered to 37° C. and aseptically inoculated with 0.14 gm of the individual probiotic strains (in Examples 5 to 10 below) to be tested. At”, “I” for “V”

Experiment [5] concerns THERALAC® Lot #32310A probiotic strains. Nature of the experiment: Growth of the commercial probiotic […] in MRS broth (turbidity, lactic acid, pH). Conditions: for pH: 0.1% in MRS (polysorbate 80 1.0 g/liter). Here is the method:
MRS broth was prepared with (for controls) and without (for tests) polysorbate 80 and filled into 1 liter screw cap flasks at 500 ml each and autoclaved at 121° C. for 30 minutes. Various lecithin and/or oleic acid additives, or nothing (negative control), was added to the tests flasks prior to autoclaving. The flasks were then tempered to 37° C. in a water bath and inoculated at 0.1% with […]® Lot #32310A, a commercial probiotic product (Master Supplements, Inc., Victoria, Minn.). Capsules of […]® were opened and the contents mixed aseptically to serve as the inoculum source. At an inoculation rate of 0.1%, approximately 80 million CFU was added per ml of MRS media. […]® contains (formulation strength) the following probiotic strains at the approximate CFU values listed per gram: Turbidity, pH and titrations (made with 0.1 N NaOH and reported as % lactic acid) were made at various times up to 23 hours. The results are presented below in Table VI for the 12 and 23-hour analyses.

Experiment [6] concerns Bifidobacterium lactis Bl-04 (BL-34). Nature of the experiment: Growth (turbidity) and lactic acid producing activity in MRS broth, B. lactis Bl-04. Conditions: 0.1% in MRS (polysorbate 80 1.0 g/liter). As to the method:
as §1, with “II” for “V”

The mark [7] stands for this setting: 0.1% in MRS (polysorbate 80 1.0 g/liter), 12 hours.

Turning to `CCCCCCCC/C=C\CCCCCCCC(=O)O` [Oleic Acid, oleic acid], the “effectiveness as polysorbate 80 replacement, in words” value in experiment [1] (0.1% inclusion rate in MRS) was “not as good a replacement as a lag phase is apparent at 12 hours”; in experiment [2] (0.1% inclusion rate in MRS), “shows an improvement over no polysorbate 80 but is not as effective a replacement for polysorbate 80 as sunflower lecithin”; in experiment [3] (0.1% inclusion rate in MRS) it was “shows an improvement over no polysorbate 80 on the 23-hour test but shows a significant lag phase at 12 hours; it is not as good a replacement for polysorbate 80 as sunflower lecithin”; in experiment [5] (0.1% inclusion rate in MRS), “acceptable replacement value for polysorbate 80 but is not as effective as either of the lecithins”. Also, the “effectiveness as polysorbate 80 replacement (growth and lactic acid production), in words” value in experiment [4] (0.1% inclusion rate in MRS) is reported as “somewhat effective as a polysorbate 80 replacement but not as effective as either sunflower or soy lecithin”.
For the compound polysorbate 80, the pH stood at 3.8 in experiment [1] (12 hours); 3.7 in experiment [1] (23 hours); 4.2 in experiment [2] (setting [7]); 3.9 in experiment [2] (0.1% in MRS (polysorbate 80 1.0 g/liter), 23 hours); 4.0 in experiment [3] (12 hours); 3.7 in experiment [3] (23 hours). The pH in experiment [6] (12 hours) is 4.8; in experiment [6] (23 hours), 4.5; in experiment [4] (12 hours), 4.2; in experiment [4] (23 hours) it was 4.1; in experiment [5] (12 hours), 3.9; in experiment [5] (23 hours), 3.7. Further, the “Lactic Acid %” value is recorded as 0.99% in experiment [2] (setting [7]), 0.57% in experiment [6] (12 hours) and 0.84% in experiment [6] (23 hours).
